Calls of active or inactive are those of the source. The calls are words filed in the database; no cut-off is given here.
Key:
[1] = organism: Danio rerio; experiment: Toxicity against zebrafish embryo assessed as head malformation at 50 ug/ml measured at 96 hrs post fertilization by inverted microscopic analysis; format: organism-based; details: in vivo
[2] = Induction of membrane damage in PC/PS liposome assessed as calcein release at MIC after 30 mins by fluorescence-based liposome leakage assay; format: functional
[3] = Hemolytic effect in sheep RBC assessed as release of hemoglobin at 10 ug/ml after 1 hr; format: ADME, cell-based, Ovis aries, Erythrocyte; details: sheep red blood cells, read-out: Activity
[4] = organism: Danio rerio; experiment: Toxicity against zebrafish embryo assessed as growth retardation at 50 ug/ml measured at 96 hrs post fertilization by inverted microscopic analysis; format: organism-based; details: in vivo
[5] = organism: Danio rerio; experiment: Toxicity against zebrafish embryo assessed as effect on eyes at 50 ug/ml measured at 96 hrs post fertilization by inverted microscopic analysis; format: organism-based; details: in vivo
[6] = organism: Danio rerio; experiment: Toxicity against zebrafish embryo assessed as effect on blood circulation at 50 ug/ml measured at 96 hrs post fertilization by inverted microscopic analysis; format: organism-based; details: in vivo
[7] = organism: Danio rerio; experiment: Toxicity against zebrafish embryo assessed as effect on otoliths at 50 ug/ml measured at 96 hrs post fertilization by inverted microscopic analysis; format: organism-based; details: in vivo
[8] = tested on: Danio rerio; experiment: Toxicity against zebrafish embryo assessed as pericardial edema at 50 ug/ml measured at 96 hrs post fertilization by inverted microscopic analysis; format: organism-based; details: in vivo
[9] = organism: Danio rerio; experiment: Toxicity against zebrafish embryo assessed as effect on heart beat at 50 ug/ml measured at 96 hrs post fertilization by inverted microscopic analysis; format: organism-based; details: in vivo
[10] = tested on: Candida albicans; experiment: Induction of membrane damage in Candida albicans CA5 at MIC measured after 2 hrs by concavaline-FITC/PI/DAPI-staining based fluorescence microscopic analysis relative to DMSO control; format: functional
[11] = organism: Danio rerio; experiment: Toxicity against zebrafish embryo assessed as skeletal deformities at 50 ug/ml measured at 96 hrs post fertilization by inverted microscopic analysis; format: organism-based; details: in vivo
[12] = tested on: Candida albicans; experiment: Fungistatic activity against Candida albicans CA5 at sub-MIC measured after 12 hrs by time-kill dependence-based spectrophotometric analysis; format: functional, organism-based
[13] = tested on: Candida albicans; experiment: Induction of cell death in Candida albicans CA5 at MIC measured after 2 hrs by concavaline-FITC/PI/DAPI-staining based fluorescence microscopic analysis relative to DMSO control; format: functional
[14] = Selectivity index, ratio of IC50 for human MRC5 cell to MIC for Candida albicans ATCC 10231

**Q.** Which Activity [1] does the source give for `Cl.Cl.N=C(N)N/N=C/c1ccc(-c2ccc(/C=N/NC(=N)N)s2)cc1` here?
**A.** Its Activity is 0%.

**Q.** And the Activity [2]?
**A.** The Activity was 8%.

**Q.** And the hemolysis at 1 h, 10 ug/ml [3]?
**A.** Its hemolysis at 1 h, 10 ug/ml is 20%.

**Q.** What about the Activity [4] of the same compound?
**A.** Its Activity is 0%.

**Q.** And the Activity [5]?
**A.** The Activity was 0%.

**Q.** What about the Activity [6] of the same compound?
**A.** The Activity was 0%.

**Q.** What about the Activity [7] of the same compound?
**A.** Its Activity is 0%.

**Q.** And the Activity [8]?
**A.** Its Activity is 0%.

**Q.** What about the Activity [9] of the same compound?
**A.** Its Activity is 0%.

**Q.** And the Activity [10]?
**A.** The Activity was 20%.

**Q.** What about the Activity [11] of the same compound?
**A.** The Activity was 0%.

**Q.** And the Activity [12]?
**A.** The Activity was “Active”.

**Q.** What does the source list for `Cc1ccc(-c2ccc(/C=N/NC(=N)N)s2)cc1.Cl`?
**A.** Activity [13]: inactive; Selectivity Index [14]: 2.7
